Results on 8 compounds are retold here after patent publication US20050282743A1, “Molecular interactions in cells” (Arbor Vita Corporation, priority 2001, published 2005).

Peptide text beside a SMILES is read from it. * marks the point of attachment. Biotin = O=C1N[C@H]2[C@H](CS[C@H]2CCCCC(=O)*)N1

Holding throughout (type): binding
The target of assay [1] is T1, PDZ-domain polypeptide (GST/PDZ fusion protein) (Homo sapiens, UniProt Q96HC4).
T1 construct: made in house; host or cells: E. coli (DH5alpha, BL21 or JM109)
T1 sequence (Q96HC4 whole entry, the tested form may be a part): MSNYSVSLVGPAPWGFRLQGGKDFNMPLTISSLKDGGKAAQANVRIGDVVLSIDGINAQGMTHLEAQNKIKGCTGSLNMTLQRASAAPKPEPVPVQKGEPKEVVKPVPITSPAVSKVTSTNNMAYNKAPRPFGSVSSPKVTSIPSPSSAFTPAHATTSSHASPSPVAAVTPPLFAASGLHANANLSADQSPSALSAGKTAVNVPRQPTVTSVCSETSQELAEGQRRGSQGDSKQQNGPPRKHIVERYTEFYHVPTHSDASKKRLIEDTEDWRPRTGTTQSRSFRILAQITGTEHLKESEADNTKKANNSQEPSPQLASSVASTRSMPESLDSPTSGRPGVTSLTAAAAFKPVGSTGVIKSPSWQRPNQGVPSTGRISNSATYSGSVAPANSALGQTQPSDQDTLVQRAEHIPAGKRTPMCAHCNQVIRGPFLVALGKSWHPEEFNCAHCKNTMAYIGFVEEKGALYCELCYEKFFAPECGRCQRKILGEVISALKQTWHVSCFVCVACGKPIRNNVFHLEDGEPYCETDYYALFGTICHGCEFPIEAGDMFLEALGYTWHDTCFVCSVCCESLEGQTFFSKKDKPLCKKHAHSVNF
Nature of the assay: Apparent affinity (Kd) by titration of PL peptide in the G assay. The settings on record: PDZ LIM Protein, PDZ Domain 1; titration of the PL peptide; read-out: Peptide Optimal Conc (Kd, dissociation constant). Summed up:
(§1)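 A fixed concentration of GST/PDZ fusion protein, 5 ug/ml by default, was mixed in solution with increasing labeled PL peptide (e.g. 0.1 uM-1 mM). Reaction times ranged from 10 minutes to 2 days at 4-37° C. Complexes were separated from free peptide and detected via the label as in the G assay, apparent affinity coming from the saturating concentration.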

For assay [2], the target named is T2, PDZ-domain polypeptide (GST/PDZ fusion protein) (Homo sapiens, UniProt O14907).
T2 construct: made in house; host or cells: E. coli (DH5alpha, BL21 or JM109)
T2 sequence (O14907 whole entry, the tested form may be a part): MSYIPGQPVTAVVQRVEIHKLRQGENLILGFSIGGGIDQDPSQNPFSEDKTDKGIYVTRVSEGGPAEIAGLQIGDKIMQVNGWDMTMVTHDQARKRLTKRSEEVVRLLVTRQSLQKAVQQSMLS
The assay is described as above. The settings on record: PDZ TIP1, PDZ Domain 1; titration of the PL peptide; read-out: Peptide Optimal Conc (Kd, dissociation constant). Summed up:
as §1

Assay [3] deals with T3, PDZ-domain polypeptide (GST/PDZ fusion protein) (Homo sapiens, UniProt Q9P202).
T3 construct: made in house; host or cells: E. coli (DH5alpha, BL21 or JM109)
The description is as above. The settings on record: PDZ KIAA1526, PDZ Domain 1; read-out: Peptide Optimal Conc (Kd by titration of the PL peptide). Summed up: as §1

The target of assay [4] is T4, PDZ-domain polypeptide (GST/PDZ fusion protein) (Homo sapiens, UniProt Q13796).
T4 construct: made in house; host or cells: E. coli (DH5alpha, BL21 or JM109)
T4 sequence (Q13796 whole entry, the tested form may be a part): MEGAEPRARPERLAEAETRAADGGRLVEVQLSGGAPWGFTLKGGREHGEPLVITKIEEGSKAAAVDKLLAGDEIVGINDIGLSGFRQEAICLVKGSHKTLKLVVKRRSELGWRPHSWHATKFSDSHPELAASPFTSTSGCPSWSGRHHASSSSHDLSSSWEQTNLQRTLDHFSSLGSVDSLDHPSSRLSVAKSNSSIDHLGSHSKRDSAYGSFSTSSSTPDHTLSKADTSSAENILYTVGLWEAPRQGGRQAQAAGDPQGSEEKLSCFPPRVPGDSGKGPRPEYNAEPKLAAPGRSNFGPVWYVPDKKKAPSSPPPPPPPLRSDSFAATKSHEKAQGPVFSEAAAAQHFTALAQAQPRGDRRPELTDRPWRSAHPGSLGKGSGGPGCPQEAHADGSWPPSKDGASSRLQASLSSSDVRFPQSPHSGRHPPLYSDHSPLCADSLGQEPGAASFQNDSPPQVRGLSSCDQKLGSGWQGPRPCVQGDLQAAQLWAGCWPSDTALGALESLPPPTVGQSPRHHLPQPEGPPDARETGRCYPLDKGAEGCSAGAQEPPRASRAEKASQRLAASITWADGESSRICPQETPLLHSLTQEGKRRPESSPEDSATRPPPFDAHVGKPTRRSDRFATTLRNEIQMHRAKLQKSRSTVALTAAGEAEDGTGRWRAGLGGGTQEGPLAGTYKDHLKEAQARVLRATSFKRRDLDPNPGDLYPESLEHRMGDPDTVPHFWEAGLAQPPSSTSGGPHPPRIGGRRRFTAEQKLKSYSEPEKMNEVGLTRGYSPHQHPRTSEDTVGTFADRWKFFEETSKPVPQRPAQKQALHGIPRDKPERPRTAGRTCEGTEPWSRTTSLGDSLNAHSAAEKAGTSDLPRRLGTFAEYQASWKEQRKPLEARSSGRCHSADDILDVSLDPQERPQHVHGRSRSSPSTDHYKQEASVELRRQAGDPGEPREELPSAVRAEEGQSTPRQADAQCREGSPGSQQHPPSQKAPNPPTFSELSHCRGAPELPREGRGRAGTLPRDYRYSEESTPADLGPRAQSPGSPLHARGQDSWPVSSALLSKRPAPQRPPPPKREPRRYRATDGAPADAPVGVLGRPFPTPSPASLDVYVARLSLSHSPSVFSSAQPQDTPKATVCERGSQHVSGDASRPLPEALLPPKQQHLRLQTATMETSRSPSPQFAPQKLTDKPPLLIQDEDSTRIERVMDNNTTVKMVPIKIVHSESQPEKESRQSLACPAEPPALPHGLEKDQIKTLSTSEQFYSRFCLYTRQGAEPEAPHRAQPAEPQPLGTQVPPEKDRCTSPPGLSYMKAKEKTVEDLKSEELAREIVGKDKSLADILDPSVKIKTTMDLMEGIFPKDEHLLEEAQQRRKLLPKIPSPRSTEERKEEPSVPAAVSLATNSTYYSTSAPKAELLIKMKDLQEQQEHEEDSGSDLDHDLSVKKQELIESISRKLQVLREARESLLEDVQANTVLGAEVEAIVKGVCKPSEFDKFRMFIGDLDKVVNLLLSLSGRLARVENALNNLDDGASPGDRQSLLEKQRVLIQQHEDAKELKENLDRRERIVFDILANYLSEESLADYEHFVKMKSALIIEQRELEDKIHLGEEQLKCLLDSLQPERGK
The description is as above. Conditions: PDZ hAPXL, PDZ Domain 1; read-out: Peptide Optimal Conc (non-zero value: Kd by titration of the PL peptide). Summed up:
as §1

The target of assay [5] is T5, PDZ-domain polypeptide (GST/PDZ fusion protein) (Homo sapiens, UniProt Q9UDY2).
T5 construct: made in house; host or cells: E. coli (DH5alpha, BL21 or JM109)
The assay is described as above. Conditions: Peptide Optimal Conc (Kd by titration of the PL peptide), PDZ ZO-2, PDZ Domain 1. Summed up: as §1

The target in a further assay is T6, Mint 1 (PDZ Domain 1, 2) (Homo sapiens, UniProt Q02410).
T6 construct: When more than one PDZ domain was cloned, the DNA portion cloned represents the PDZ domains and the cDNA portion located between individual domains; made in house; host or cells: E. coli (DH5alpha, BL21 or JM109)
T6 sequence (Q02410 652-828 limits assumed): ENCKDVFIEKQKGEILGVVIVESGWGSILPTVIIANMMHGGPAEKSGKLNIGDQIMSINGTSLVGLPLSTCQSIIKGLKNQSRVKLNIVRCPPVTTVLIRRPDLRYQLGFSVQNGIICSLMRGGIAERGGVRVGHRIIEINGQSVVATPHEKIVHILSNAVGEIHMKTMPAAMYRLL
Briefly: G' assay, TABLE 12. The settings on record: A450 nm class of biotinylated PL peptide bound; 0 in conc columns = peptide 10 uM, protein 5 ug/ml. Summed up:
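PL peptide binding to PDZ domain protein, peptide at 10 uM; protein at 5 ug/ml unless another concentration is listed for Kd determination. Bound peptide read at A450 nm and binned into classes 0–5.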

Assay [6] deals with T7, PDZ-domain polypeptide (GST/PDZ fusion protein) (Homo sapiens, UniProt O00560).
T7 construct: made in house; host or cells: E. coli (DH5alpha, BL21 or JM109)
T7 sequence (O00560 whole entry, the tested form may be a part): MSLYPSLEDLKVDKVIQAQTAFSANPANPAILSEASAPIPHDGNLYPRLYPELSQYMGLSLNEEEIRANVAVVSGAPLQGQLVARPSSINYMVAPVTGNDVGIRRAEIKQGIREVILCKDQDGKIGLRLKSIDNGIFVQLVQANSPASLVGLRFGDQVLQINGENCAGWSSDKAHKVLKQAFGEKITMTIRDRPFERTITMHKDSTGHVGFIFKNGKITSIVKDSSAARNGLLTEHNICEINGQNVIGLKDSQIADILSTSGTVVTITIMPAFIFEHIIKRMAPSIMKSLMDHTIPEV
Briefly: Apparent affinity (Kd) by titration of PL peptide in the G assay. Conditions: PDZ hSyntenin, PDZ Domain 1; titration of the PL peptide; read-out: Peptide Optimal Conc (Kd, dissociation constant). The essentials: as §1

The target in assay [7] is T8, PDZ-domain polypeptide (GST/PDZ fusion protein) (Homo sapiens, UniProt Q969H4).
T8 construct: made in house; host or cells: E. coli (DH5alpha, BL21 or JM109)
The assay is described as above. Conditions: PDZ Connector Enhancer, PDZ Domain 1; Protein Optimal Conc 5. Summed up: as §1

Assay [8] addresses T9, PDZ-domain polypeptide (GST/PDZ fusion protein) (Homo sapiens, UniProt Q9C0E4).
T9 construct: made in house; host or cells: E. coli (DH5alpha, BL21 or JM109)
The description is as above. The settings on record: Peptide Optimal Conc (Kd by titration of the PL peptide). The essentials:
as §1

In assay [9] the target is T10, PDZ-domain polypeptide (GST/PDZ fusion protein) (Homo sapiens, UniProt Q9Y3R0).
T10 construct: made in house; host or cells: E. coli (DH5alpha, BL21 or JM109)
T10 sequence (Q9Y3R0 whole entry, the tested form may be a part): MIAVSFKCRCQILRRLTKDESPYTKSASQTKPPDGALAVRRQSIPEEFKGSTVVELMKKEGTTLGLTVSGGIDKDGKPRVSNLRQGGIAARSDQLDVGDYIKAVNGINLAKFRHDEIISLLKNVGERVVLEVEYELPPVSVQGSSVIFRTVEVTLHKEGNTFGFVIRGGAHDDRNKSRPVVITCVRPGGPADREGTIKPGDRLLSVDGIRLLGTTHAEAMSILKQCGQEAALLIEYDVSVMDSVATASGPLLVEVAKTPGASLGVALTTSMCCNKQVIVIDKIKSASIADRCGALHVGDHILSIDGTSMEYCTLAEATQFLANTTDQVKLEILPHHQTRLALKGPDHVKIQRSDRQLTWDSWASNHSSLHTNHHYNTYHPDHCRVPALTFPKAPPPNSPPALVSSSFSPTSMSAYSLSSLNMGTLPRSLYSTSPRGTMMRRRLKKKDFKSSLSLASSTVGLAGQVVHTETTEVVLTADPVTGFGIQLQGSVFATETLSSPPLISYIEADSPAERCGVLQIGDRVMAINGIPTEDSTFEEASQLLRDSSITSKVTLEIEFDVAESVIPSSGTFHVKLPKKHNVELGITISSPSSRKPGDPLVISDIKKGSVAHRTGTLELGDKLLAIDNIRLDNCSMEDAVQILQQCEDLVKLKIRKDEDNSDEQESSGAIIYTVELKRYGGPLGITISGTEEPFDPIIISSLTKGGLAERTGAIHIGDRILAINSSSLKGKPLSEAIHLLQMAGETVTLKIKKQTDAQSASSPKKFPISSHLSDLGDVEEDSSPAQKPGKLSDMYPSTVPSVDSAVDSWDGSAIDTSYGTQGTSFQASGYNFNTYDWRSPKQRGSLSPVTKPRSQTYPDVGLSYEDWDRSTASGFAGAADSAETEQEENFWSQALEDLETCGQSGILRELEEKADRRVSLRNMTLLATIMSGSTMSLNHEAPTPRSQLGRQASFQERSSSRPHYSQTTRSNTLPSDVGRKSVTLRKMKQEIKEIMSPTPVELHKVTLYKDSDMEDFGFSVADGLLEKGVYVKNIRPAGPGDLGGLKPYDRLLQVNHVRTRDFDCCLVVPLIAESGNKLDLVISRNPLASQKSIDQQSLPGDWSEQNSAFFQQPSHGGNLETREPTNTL
The description is as above. The settings on record: Peptide Optimal Conc (Kd by titration of the PL peptide), PDZ GRIP1, PDZ Domain 6. Summed up:
as §1

For assay [10], the target named is T11, PDZ-domain polypeptide (GST/PDZ fusion protein) (Homo sapiens, UniProt Q8NI35).
T11 construct: made in house; host or cells: E. coli (DH5alpha, BL21 or JM109)
Described as above. The settings on record: Peptide Optimal Conc (Kd by titration of the PL peptide), PDZ INADL, PDZ Domain 3. The essentials:
as §1

T9 sequence (Q9C0E4 whole entry, the tested form may be a part): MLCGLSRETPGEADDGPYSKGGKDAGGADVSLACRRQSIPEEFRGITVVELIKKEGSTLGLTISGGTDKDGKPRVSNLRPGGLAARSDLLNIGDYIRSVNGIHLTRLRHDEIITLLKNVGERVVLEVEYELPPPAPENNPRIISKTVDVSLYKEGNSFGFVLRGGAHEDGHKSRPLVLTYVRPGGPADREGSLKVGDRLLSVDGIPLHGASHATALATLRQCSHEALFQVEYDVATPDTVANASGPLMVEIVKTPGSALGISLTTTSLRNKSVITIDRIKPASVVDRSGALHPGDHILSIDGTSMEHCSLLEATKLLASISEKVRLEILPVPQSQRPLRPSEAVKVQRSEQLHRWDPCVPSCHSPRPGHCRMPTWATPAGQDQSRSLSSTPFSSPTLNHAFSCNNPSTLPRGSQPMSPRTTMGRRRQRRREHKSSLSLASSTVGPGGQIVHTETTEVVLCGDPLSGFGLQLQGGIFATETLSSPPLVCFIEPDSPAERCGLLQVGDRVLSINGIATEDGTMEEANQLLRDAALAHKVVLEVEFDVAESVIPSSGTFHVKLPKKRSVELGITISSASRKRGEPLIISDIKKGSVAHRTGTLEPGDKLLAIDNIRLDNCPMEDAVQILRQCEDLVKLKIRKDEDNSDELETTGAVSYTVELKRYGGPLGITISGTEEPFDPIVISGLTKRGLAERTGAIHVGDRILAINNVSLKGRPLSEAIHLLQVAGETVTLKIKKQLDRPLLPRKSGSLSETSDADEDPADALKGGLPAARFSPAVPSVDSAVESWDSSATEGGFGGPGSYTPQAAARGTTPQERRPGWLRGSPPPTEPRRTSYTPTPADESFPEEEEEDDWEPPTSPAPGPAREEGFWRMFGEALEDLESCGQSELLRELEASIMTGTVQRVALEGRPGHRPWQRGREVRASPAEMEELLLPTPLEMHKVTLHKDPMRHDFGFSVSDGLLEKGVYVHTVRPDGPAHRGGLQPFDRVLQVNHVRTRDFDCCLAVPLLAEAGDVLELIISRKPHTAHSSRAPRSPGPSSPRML

Turning to `CC(C)C[C@H](NC(=O)[C@H](CC(=O)O)NC(=O)[C@H](CO)NC(=O)[C@H](CCC(=O)O)NC(=O)CNC(=O)[C@H](Cc1ccc(O)cc1)NC(=O)[C@H](CC(C)C)NC(=O)[C@H](C)NC(=O)[C@H](CO)NC(=O)[C@H](CO)NC(=O)[C@H](Cc1ccccc1)NC(=O)[C@H](C)NC(=O)[C@H](C)NC(=O)[C@H](Cc1ccc(O)cc1)NC(=O)[C@H](CC(=O)O)NC(=O)[C@H](CC(C)C)NC(=O)[C@H](C)NC(=O)CNC(=O)[C@@H]1CCCN1C(=O)[C@@H](NC(=O)CCCC[C@@H]1SC[C@@H]2NC(=O)N[C@@H]21)C(C)C)C(=O)O` [a-actinin 2] (Biotin-VPGALDYAAFSSALYGESDL-OH; C-terminus assumed), the figures for the Kd in assay [1] and in [2] were 2000 nM and 1000 nM, respectively.

For `CSCC[C@H](NC(=O)[C@H](C)NC(=O)[C@H](CCCNC(=N)N)NC(=O)CNC(=O)[C@@H](NC(=O)[C@H](Cc1c[nH]c2ccccc12)NC(=O)[C@H](CCCNC(=N)N)NC(=O)CNC(=O)CCCC[C@@H]1SC[C@@H]2NC(=O)N[C@@H]21)[C@@H](C)O)C(=O)N[C@@H](CO)C(=O)N[C@@H](C)C(=O)N[C@@H](Cc1c[nH]c2ccccc12)C(=O)N[C@@H](CCCCN)C(=O)N1CCC[C@H]1C(=O)N[C@H](C(=O)N[C@@H](CCCNC(=N)N)C(=O)N[C@@H](CCCNC(=N)N)C(=O)N[C@@H](CCC(=O)O)C(=O)N[C@H](C(=O)N[C@@H](CCC(=O)O)C(=O)N[C@H](C(=O)O)C(C)C)[C@@H](C)O)[C@@H](C)O` [HPV E6 #35 (modified)] (Biotin-GRWTGRAMSAWKPTRRETEV-OH; C-terminus assumed), in assay [3], the Kd was determined as 1000 nM. With `CC[C@H](C)[C@H](NC(=O)CNC(=O)[C@H](CO)NC(=O)[C@H](Cc1ccccc1)NC(=O)[C@@H](NC(=O)[C@H](CS)NC(=O)CNC(=O)CNC(=O)[C@H](C)NC(=O)[C@@H]1CCCN1C(=O)[C@@H](NC(=O)[C@@H]1CCCN1C(=O)CCCC[C@@H]1SC[C@@H]2NC(=O)N[C@@H]21)[C@@H](C)CC)[C@@H](C)O)C(=O)N[C@@H](Cc1ccccc1)C(=O)N1CCC[C@H]1C(=O)N[C@H](C(=O)N[C@@H](CC(C)C)C(=O)N[C@H](C(=O)N[C@@H](CO)C(=O)N1CCC[C@H]1C(=O)N[C@@H](CC(C)C)C(=O)O)[C@@H](C)O)[C@@H](C)O` [KIA 1481] (Biotin-PIPAGGCTFSGIFPTLTSPL-OH; C-terminus assumed), the Kd in assay [4] amounted to 600 nM. On to `CC[C@H](C)[C@H](NC(=O)[C@H](CC(=O)O)NC(=O)[C@H](CCC(=O)O)NC(=O)[C@H](CCCNC(=N)N)NC(=O)[C@@H](NC(=O)CCCC[C@@H]1SC[C@@H]2NC(=O)N[C@@H]21)[C@@H](C)O)C(=O)N[C@@H](Cc1ccc(O)cc1)C(=O)N[C@H](C(=O)N[C@@H](CC(N)=O)C(=O)N[C@@H](Cc1ccc(O)cc1)C(=O)N1CCC[C@H]1C(=O)N[C@H](C(=O)N[C@@H](Cc1ccccc1)C(=O)N[C@@H](CO)C(=O)N[C@@H](CCCNC(=N)N)C(=O)N[C@@H](CCCNC(=N)N)C(=O)N1CCC[C@H]1C(=O)N[C@@H](CCCCN)C(=O)N[C@H](C(=O)N[C@@H](CCCNC(=N)N)C(=O)N[C@H](C(=O)O)C(C)C)[C@@H](C)O)[C@@H](C)O)C(C)C` [DNAM-1] (Biotin-TREDIYVNYPTFSRRPKTRV-OH; C-terminus assumed), for which the Kd in assay [5] came to 3000 nM.

Take `CC(C)C[C@H](NC(=O)[C@H](C)NC(=O)[C@@H](NC(=O)[C@@H](NC(=O)[C@H](Cc1c[nH]cn1)NC(=O)[C@H](CC(C)C)NC(=O)CNC(=O)[C@H](CCC(N)=O)NC(=O)CNC(=O)CNC(=O)[C@H](C)NC(=O)[C@H](C)NC(=O)[C@H](CCCNC(=N)N)NC(=O)[C@H](C)NC(=O)[C@H](CO)NC(=O)[C@H](CC(=O)O)NC(=O)[C@H](CC(=O)O)NC(=O)[C@H](Cc1c[nH]c2ccccc12)NC(=O)[C@H](C)NC(=O)CCCC[C@@H]1SC[C@@H]2NC(=O)N[C@@H]21)C(C)C)[C@@H](C)O)C(=O)O` [LPAP] (Biotin-AWDDSARAAGGQGLHVTAL-OH; C-terminus assumed): the Classification at Mint 1 (PDZ Domain 1, 2) is on record as 1 (A450 nm 0-1). With `CC[C@H](C)[C@H](NC(=O)[C@H](Cc1ccc(O)cc1)NC(=O)[C@@H](NC(=O)[C@@H]1CCCN1C(=O)[C@H](CCC(N)=O)NC(=O)[C@H](CCC(=O)O)NC(=O)[C@H](CCC(N)=O)NC(=O)[C@H](C)NC(=O)[C@@H](NC(=O)[C@H](CC(C)C)NC(=O)[C@H](CC(C)C)NC(=O)[C@H](CCCNC(=N)N)NC(=O)[C@H](Cc1ccc(O)cc1)NC(=O)[C@H](CCSC)NC(=O)[C@H](C)NC(=O)[C@H](C)NC(=O)[C@@H]1CCCN1C(=O)[C@H](CCSC)NC(=O)[C@@H](NC(=O)[C@H](CCCCN)NC(=O)CCCC[C@@H]1SC[C@@H]2NC(=O)N[C@@H]21)[C@@H](C)O)[C@@H](C)O)C(C)C)C(=O)O` [MINT-1] (Biotin-KTMPAAMYRLLTAQEQPVYI-OH; C-terminus assumed), the Kd in [6] amounted to 800 nM. Regarding `CC[C@H](C)[C@H](NC(=O)[C@H](CCCCN)NC(=O)[C@@H](NC(=O)[C@H](CO)NC(=O)[C@@H]1CCCN1C(=O)[C@H](Cc1ccccc1)NC(=O)[C@@H](NC(=O)[C@@H](NC(=O)[C@H](CCCNC(=N)N)NC(=O)[C@H](CCC(=O)O)NC(=O)[C@H](CC(C)C)NC(=O)[C@H](CC(C)C)NC(=O)[C@H](CC(C)C)NC(=O)[C@@H](NC(=O)CNC(=O)[C@@H](NC(=O)CCCC[C@@H]1SC[C@@H]2NC(=O)N[C@@H]21)C(C)C)[C@@H](C)O)C(C)C)[C@@H](C)CC)C(C)C)C(=O)N[C@@H](C)C(=O)N[C@H](C(=O)N[C@@H](CC(C)C)C(=O)N[C@H](C(=O)O)C(C)C)[C@@H](C)O` [Adenovirus E4 Type9], in assay [7], the Kd came to 100 nM. In the case of `CC[C@H](C)[C@H](NC(=O)[C@H](C)NC(=O)[C@H](CC(C)C)NC(=O)[C@H](Cc1c[nH]c2ccccc12)NC(=O)[C@H](Cc1c[nH]cn1)NC(=O)[C@H](CCC(N)=O)NC(=O)[C@H](CC(C)C)NC(=O)[C@H](CCC(N)=O)NC(=O)[C@H](Cc1ccccc1)NC(=O)[C@H](CCC(N)=O)NC(=O)[C@H](CCCNC(=N)N)NC(=O)[C@@H](NC(=O)[C@H](CC(=O)O)NC(=O)[C@H](CCCNC(=N)N)NC(=O)[C@H](CCC(N)=O)NC(=O)[C@H](C)NC(=O)[C@@H](NC(=O)[C@H](CC(C)C)NC(=O)[C@H](Cc1c[nH]cn1)NC(=O)[C@H](Cc1c[nH]cn1)NC(=O)CCCC[C@@H]1SC[C@@H]2NC(=O)N[C@@H]21)C(C)C)[C@@H](C)CC)C(=O)O` [noradrenaline transporter] (Biotin-HHLVAQRDIRQFQLQHWLAI-OH; C-terminus assumed), the Kd turned out to be 1000 nM in assay [8] (PDZ KIAA1719, PDZ Domain 5); 800 nM in [8] (PDZ KIAA1719, PDZ Domain 6); 500 nM in assay [9]; 600 nM in assay [10].
